Data on six substances can be found in US6455045B1, “Immunogenic compounds with in particular an anti-cytokine effect, preparation process, pharmaceutical compositions and kits containing them” (priority 1991, dated 2002).

No end group written: not given here.

Test [1] has as its system T-cells originating from fresh human blood. In kind it is cell-based.
Test [2] has as its system HIV-1 env bands (gp160, gp120, gp41). Description: Western blot (Abott HIV-1 detection kit) with serums of peptide-immunized mice. The note with it: 15 μg per injection days 0, 30, 60, day 70. The format is in vivo. As to the method: Four batches of five mice were chosen to receive the peptides SI Nos. 1, 2, 6, 10 respectively.
The peptides prepared as described in Example 2 were injected on days 0, 30, 60 in a quantity of 15 μg per injection. On day 70 the mice were sacrificed, their T-cells were isolated (spleen and ganglia) and their serum was stored.

“Cys-Gln-His-Leu-Leu-Gln-Leu-Thr-Val-Trp-Gly-Ile-Lys-Glu or Gln-Leu-Glu Gln-Ala-Arg-Ile-Leu-Ala-Val-Glu-Arg-Tyr-Leu-Lys-Asp-Gln [SI No. 5]”: the “activation of T-cells (incorporation of labelled thymidine)” value (from here on “activation of T-cells”) in test [1] is “low activation according to a dose-effect curve”.

For “Cys-Ser-Ala-Thr-Glu-Lys-Leu-Trp-Val-Thr-Val-Tyr-Tyr [SI No. 7]”, the “activation of T-cells” value in test [1] is recorded as “low activation according to a dose-effect curve”.

On to “His-Glu-Asp-Ile-Ile-Ser-Leu-Trp-Asp-Gln-Ser-Leu-Lys [SI No. 6]”, for which the “activation of T-cells” value in test [1] is on record as “low activation according to a dose-effect curve”. The “Western blot bands showing a signal” value in test [2] was “gp60 and gp120 bands showed a signal”.

For QLLLNGSLAEEE [SI No. 10], in test [1], the “activation of T-cells” value was “low activation according to a dose-effect curve”. Besides, the “Western blot bands showing a signal” value in test [2] was “gp60 and gp120 bands showed a signal”.

Turning to “SI No. 1: peptide SI No. 1, a or b form not stated; prepared in proteosomes as in Example 2 (probably 1b); HIV-1 gag P7 region (IARNCRAPRKKG)”, the “Western blot bands showing a signal” value in test [2] was “gp60 and gp120 bands showed a signal”.

As for “SI No. 2: peptide SI No. 2, a or b form not stated; prepared in proteosomes as in Example 2 (probably 2b); HIV-1 gp41 region 735-753 (DRPEGIEEEGGERDRDRS)”, in test [2], the “Western blot bands showing a signal” value was “gp160 and gp41”.
